How the values were obtained:
[1] = Half life in human liver microsomes at 1 uM by LC-MS/MS analysis
CYP11B = biological target: T1, CYP11B (Rattus norvegicus, UniProt P15393+P30099); experiment: Inhibition of Sprague-Dawley rat adrenal mitochondrial CYP11B assessed as decrease in conversion of 11-deoxycortisol to cortisol at 100 nM incubated for 60 mins by ELISA relative to control; format: protein assay; conditions: adrenal mitochondria, probe 11-deoxycortisol
T1 sequence (P30099 whole entry): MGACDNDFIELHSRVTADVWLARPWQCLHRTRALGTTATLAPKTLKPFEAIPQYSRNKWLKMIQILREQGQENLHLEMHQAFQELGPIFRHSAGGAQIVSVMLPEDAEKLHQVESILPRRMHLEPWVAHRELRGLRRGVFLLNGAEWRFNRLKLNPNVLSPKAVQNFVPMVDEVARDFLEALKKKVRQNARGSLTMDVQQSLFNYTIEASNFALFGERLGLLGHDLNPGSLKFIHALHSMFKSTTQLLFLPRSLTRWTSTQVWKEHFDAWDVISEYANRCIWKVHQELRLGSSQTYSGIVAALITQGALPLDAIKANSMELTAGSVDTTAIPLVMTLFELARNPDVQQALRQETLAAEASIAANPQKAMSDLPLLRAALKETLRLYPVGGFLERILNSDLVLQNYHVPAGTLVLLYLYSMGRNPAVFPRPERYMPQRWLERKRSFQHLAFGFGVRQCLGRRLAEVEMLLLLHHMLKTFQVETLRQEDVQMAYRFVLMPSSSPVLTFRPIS
T1 sequence (P15393 whole entry): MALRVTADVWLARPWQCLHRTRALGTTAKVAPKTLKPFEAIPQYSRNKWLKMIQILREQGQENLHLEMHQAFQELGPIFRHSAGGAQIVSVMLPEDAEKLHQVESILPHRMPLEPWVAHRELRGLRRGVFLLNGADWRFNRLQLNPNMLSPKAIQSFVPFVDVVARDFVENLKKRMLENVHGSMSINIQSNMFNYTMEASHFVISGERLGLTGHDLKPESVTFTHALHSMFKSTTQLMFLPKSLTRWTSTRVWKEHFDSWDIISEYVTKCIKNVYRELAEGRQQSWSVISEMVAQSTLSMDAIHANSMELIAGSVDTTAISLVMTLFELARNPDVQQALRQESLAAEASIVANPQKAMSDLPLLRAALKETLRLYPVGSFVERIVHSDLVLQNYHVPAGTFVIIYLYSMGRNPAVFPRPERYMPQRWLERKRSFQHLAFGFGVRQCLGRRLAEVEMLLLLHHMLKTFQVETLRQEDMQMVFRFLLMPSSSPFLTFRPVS

[2] = biological target: T2, CYP21 (steroid 21-hydroxylase) (Homo sapiens, UniProt P08686); experiment: Inhibition of human CYP21 transfected in HEK293 cells assessed as decrease in conversion of progesterone to 11-deoxycorticosterone at 100 nM preincubated for 5 hrs followed by progesterone addition measured after 20 hrs by ELISA relative to control; format: cell-based; conditions: HEK293 cells transfected with human CYP21, probe progesterone
T2 sequence (P08686 whole entry): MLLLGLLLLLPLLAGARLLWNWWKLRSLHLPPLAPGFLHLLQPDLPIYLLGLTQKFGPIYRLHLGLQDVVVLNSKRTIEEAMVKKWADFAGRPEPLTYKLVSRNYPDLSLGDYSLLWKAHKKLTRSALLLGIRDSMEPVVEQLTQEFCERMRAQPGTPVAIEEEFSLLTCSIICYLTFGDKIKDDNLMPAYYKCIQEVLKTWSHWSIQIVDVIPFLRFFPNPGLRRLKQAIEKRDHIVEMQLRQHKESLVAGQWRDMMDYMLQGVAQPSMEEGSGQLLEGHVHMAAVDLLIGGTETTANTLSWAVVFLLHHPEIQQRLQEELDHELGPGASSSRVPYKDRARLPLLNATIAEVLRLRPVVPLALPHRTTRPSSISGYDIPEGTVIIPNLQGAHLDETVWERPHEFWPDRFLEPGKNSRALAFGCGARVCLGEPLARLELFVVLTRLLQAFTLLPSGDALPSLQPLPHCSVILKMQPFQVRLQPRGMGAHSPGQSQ

[3] = biological target: T2, CYP21 (steroid 21-hydroxylase); experiment: Inhibition of human CYP21 transfected in HEK293 cells assessed as decrease in conversion of progesterone to 11-deoxycorticosterone preincubated for 5 hrs followed by progesterone addition measured after 20 hrs by ELISA; format: cell-based; parameters: concentration or dose not given beside the values; conditions: HEK293 cells transfected with human CYP21, probe progesterone
[4] = biological target: T3, Steroid 17-alpha-hydroxylase/17,20 lyase (Homo sapiens, UniProt P05093); experiment: Inhibition of CYP17 in human testicular microsomes using 17alpha-hydroxypregnenolone as substrate assessed as decrease in DHEA levels after 90 mins by ELISA; parameters: species or system Testis
T3 sequence (P05093 whole entry): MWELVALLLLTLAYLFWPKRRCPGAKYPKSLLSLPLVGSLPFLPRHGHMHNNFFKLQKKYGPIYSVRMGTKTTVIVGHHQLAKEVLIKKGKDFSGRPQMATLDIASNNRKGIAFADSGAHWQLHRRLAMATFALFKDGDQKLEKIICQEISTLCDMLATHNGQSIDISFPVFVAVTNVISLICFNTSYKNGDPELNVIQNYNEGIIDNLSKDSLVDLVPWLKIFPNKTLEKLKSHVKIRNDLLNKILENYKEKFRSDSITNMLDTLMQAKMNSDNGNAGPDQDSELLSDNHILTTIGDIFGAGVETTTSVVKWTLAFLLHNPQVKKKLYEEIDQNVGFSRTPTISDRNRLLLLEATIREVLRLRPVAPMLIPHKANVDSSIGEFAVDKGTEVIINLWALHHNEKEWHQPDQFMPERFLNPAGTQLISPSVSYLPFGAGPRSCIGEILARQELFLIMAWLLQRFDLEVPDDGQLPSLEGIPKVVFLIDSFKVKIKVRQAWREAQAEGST

[5] = biological target: T3, Steroid 17-alpha-hydroxylase/17,20 lyase; experiment: Inhibition of CYP17 in human testicular microsomes using 17alpha-hydroxypregnenolone as substrate assessed as decrease in DHEA levels at 1 nM after 90 mins by ELISA relative to control; parameters: species or system Testis
[6] = biological target: T3, Steroid 17-alpha-hydroxylase/17,20 lyase; experiment: Inhibition of CYP17 in human testicular microsomes using 17alpha-hydroxypregnenolone as substrate assessed as decrease in DHEA levels at 10 nM after 90 mins by ELISA relative to control; parameters: species or system Testis; conditions: 1.5 h
[7] = Half life in rat liver microsomes at 1 uM by LC-MS/MS analysis
[8] = biological target: T3, Steroid 17-alpha-hydroxylase/17,20 lyase; experiment: Inhibition of CYP17 in human H295R cells assessed as decrease in testosterone levels after 24 hrs by ELISA; format: cell-based

Row | Structure (SMILES) | half-life at 1 µM [1] [min] | inhibition at 1 h, 0.1 µM (CYP11B) [%] | inhibition at 20 h, 0.1 µM [2] [%] | inhibition at 20 h [3] [%] | IC50 [4] [nM] | IC50 [5] [nM] | inhibition at 0.01 µM [6] [%] | half-life at 1 µM [7] [min] | IC50 [8] [nM]
1 | CCNC(=O)N[C@@H]1CC[C@@]2(C)C(=CC[C@@H]3[C@@H]2CC[C@]2(C)C(n4ccnc4)=CC[C@@H]32)C1 | 1 to 50 | ≥ 50 | < 30 | ≥ 50 | – | – | – | – | –
2 | CO/N=C1/C=C2CC[C@H]3C4=CC=C(c5cccnc5)[C@@]4(C)CC[C@@H]3[C@@]2(C)CC1 | ≥ 50 | – | ≥ 30 | 10 to 50 | ≤ 11 | > 100 | – | – | –
3 | CN1CC[C@@]2(C)C(=CC1=O)CCC1[C@@H]2CC[C@]2(C)C(c3cccnc3)=CC[C@@H]12 (single isomer, unassigned) | 10 to 60 | – | ≥ 30 | – | ≤ 11 | – | 50 to 80 | 10 to 60 | –
4 | C[C@]12CC(O)C[C@@H]1CC[C@@H]1[C@@H]2CC[C@]2(C)C(n3ccnc3)=CC[C@@H]12 (stereo partly specified) | 10 to 60 | ≥ 50 | ≥ 30 | – | ≤ 11 | – | ≥ 80 | 10 to 60 | ≤ 15
5 | C[C@]12CC[C@H]3[C@@H](CCC4=CC(=O)CC[C@@]43C)C1=CC=C2c1cccnc1 | 1 to 50 | – | ≥ 30 | – | ≤ 11 | – | ≥ 80 | 1 to 10 | –
6 | CN1CC[C@@]2(C)C(=CC1=O)CC[C@H]1C3=CC=C(n4ccnc4)[C@@]3(C)CC[C@@H]12 | ≥ 50 | – | ≥ 30 | – | – | – | ≥ 80 | 10 to 60 | ≤ 15
7 | C[C@]12CC[C@H]3[C@@H](CC[C@H]4CC(=O)CC[C@@]43C)C1=CC=C2n1ccnc1 | 1 to 50 | < 32 | < 30 | – | ≤ 11 | – | ≥ 80 | – | –
8 | CN1CC[C@@]2(C)C(=CC1=O)CC[C@H]1C3=CC=C(c4cccnc4)[C@@]3(C)CC[C@@H]12 | 1 to 50 | < 32 | ≥ 30 | – | ≤ 11 | – | ≥ 80 | – | –
9 | C[C@]12CCNC(=O)C=C1CC[C@@H]1[C@@H]2CC[C@]2(C)C(c3cccnc3)=CC[C@@H]12 | 1 to 10 | – | < 30 | – | ≤ 11 | – | ≥ 80 | 1 to 10 | –
10 | C[C@]12CC[C@H]3[C@@H](CC[C@H]4CC(=O)CC[C@@]43C)C1=CC=C2c1cccnc1 | 1 to 50 | ≥ 50 | ≥ 30 | – | ≤ 11 | – | ≥ 80 | – | –
11 | Cc1cncc(C2=CC[C@H]3[C@@H]4CCC5=CC(=O)NCC[C@]5(C)[C@H]4CC[C@]23C)c1 | 10 to 60 | – | ≥ 30 | – | ≤ 11 | – | 50 to 80 | 10 to 60 | –
12 | C[C@]12CC[C@H]3[C@@H](CCC4=CC(=O)CC[C@@]43C)C1=CC=C2n1ccnc1 | ≥ 50 | ≥ 50 | < 30 | – | ≤ 11 | – | ≥ 80 | 10 to 60 | –
13 | C[C@]12CCNC(=O)C=C1CC[C@@H]1[C@@H]2CC[C@]2(C)C(n3cncn3)=CC[C@@H]12 | 1 to 10 | < 32 | ≥ 30 | – | ≤ 11 | – | ≥ 80 | 1 to 10 | –
14 | C[C@]12CC[C@H]3[C@@H](CC[C@H]4CC(=O)NCC[C@@]43C)C1=CC=C2c1cccnc1 | 1 to 50 | – | < 30 | – | ≤ 11 | – | ≥ 80 | 1 to 10 | –
15 | C[C@]12CCNC(=O)C=C1CC[C@@H]1[C@@H]2CC[C@]2(C)C(n3ccnc3)=CC[C@@H]12 | ≥ 50 | – | < 30 | – | ≤ 11 | – | ≥ 80 | 10 to 60 | ≤ 15
16 | C[C@]12CC[C@H]3[C@@H](CC=C4C[C@@H](O)CC[C@@]43C)C1=CC=C2c1cccnc1 | 1 to 50 | < 32 | < 30 | – | ≤ 11 | – | 50 to 80 | 10 to 60 | ≤ 15
17 | C[C@]12CC[C@H]3[C@@H](CCC4=CC(=O)NCC[C@@]43C)C1=CC=C2n1ccnc1 | ≥ 50 | – | < 30 | – | ≤ 11 | – | ≥ 80 | 10 to 60 | –
